Laboratory results from patent US20240166647A1, “Cereblon Ligands” (THE REGENTS OF THE UNIVERSITY OF MICHIGAN, priority 2021, published 2024).

Target: T1, GST-tagged wild-type human CRBN protein (Homo sapiens, UniProt Q96SW2)
T1 construct: purchased Cisbio 64BDCRBNPEG
Assay: Cereblon Binding Assay (Cisbio Cereblon Binding Kit, TR-FRET)
Settings: TR-FRET competition with XL665-labelled Thalidomide, room temperature about 3 hours
Method: In some embodiments, the biological assay may involve evaluation of CRBN binding activity, e.g., in Cereblon Binding Kit (Cisbio, #64BDCRBNPEG).
In some embodiments, the cell line is maintained and cultured, e.g., at room temperature for about 3 hours.
In some embodiments, the Fluorescence Resonance Energy Transfer (TR-FRET) measurements of the cell line is recorded and evaluated.
Procedure for Cereblon Binding Assay. The binding to cereblon (CRBN) was determined using the Cereblon Binding Kit (Cisbio, #64BDCRBNPEG) following the manufacturer's instruction. Briefly, serially diluted compounds were incubated with GST-tagged wild-type human CRBN protein, XL665-labelled Thalidomide and Europium Cryptate labelled GST antibody at room temperature for about 3 hours. […] The readings were normalized to the control (0.5%) and the ICso was calculated by nonlinear regression (four parameters sigmoid fitted with variable slope) analysis using the GraphPad Prism 8 software.

T1 sequence (Q96SW2 whole entry): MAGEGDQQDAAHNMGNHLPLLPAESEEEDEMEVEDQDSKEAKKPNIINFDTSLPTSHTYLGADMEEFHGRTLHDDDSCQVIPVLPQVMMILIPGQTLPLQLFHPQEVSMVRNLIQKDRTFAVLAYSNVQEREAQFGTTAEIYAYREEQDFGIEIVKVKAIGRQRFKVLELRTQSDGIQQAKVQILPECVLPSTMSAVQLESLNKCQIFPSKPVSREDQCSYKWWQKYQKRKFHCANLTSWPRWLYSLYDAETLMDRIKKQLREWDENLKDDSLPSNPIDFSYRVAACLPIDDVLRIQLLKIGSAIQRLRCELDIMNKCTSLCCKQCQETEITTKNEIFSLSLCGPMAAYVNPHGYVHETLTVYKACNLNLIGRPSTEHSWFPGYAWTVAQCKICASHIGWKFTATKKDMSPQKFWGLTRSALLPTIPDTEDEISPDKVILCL

Structure (SMILES) | IC50 [nM]
O=C1CCC(N2Cc3cc4c(cc3C2=O)CC2(CNC2)C4)C(=O)N1 (stereo not shown) [Example 218] | 1000 to 10000
O=C(O)CN1CCc2cc3c(cc2C1)C(=O)N(C1CCC(=O)NC1=O)C3=O (stereo not shown) [Example 238] | 1000 to 10000
O=C1CCC(N2Cc3cc4c(cc3C2)C(=O)N(C2CCC(=O)NC2=O)C4)CC1 (stereo not shown) [Example 249] | 500 to 1000
O=C(O)CCN1CCc2cc3c(cc2C1)C(=O)N(C1CCC(=O)NC1=O)C3=O (stereo not shown) [Example 241] | 500 to 1000
CNC1CCC(N2Cc3cc4c(cc3C2)C(=O)N(C2CCC(=O)NC2=O)C4=O)CC1 (stereo not shown) [Example 244] | < 500
O=C1CCC(N2C(=O)c3cc4c(cc3C2=O)CN(Cc2ccc(C(F)(F)F)cc2)CCC4)C(=O)N1 (stereo not shown) [Example 227] | 500 to 1000
O=C1CCC(N2Cc3cc4c(cc3C2=O)CN(Cc2ccc(F)cc2)C4)C(=O)N1 (stereo not shown) [Example 222] | < 500
O=C(O)CCN1Cc2cc3c(cc2C1)C(=O)N(C1CCC(=O)NC1=O)C3=O (stereo not shown) [Example 239] | < 500
O=C1CCC(N2Cc3cc4c(cc3C2=O)CN(CC2CN(Cc3ccc(F)c(F)c3)C2)C4=O)C(=O)N1 (stereo not shown) [Example 231] | 500 to 1000
O=C1CCC(N2Cc3cc4c(cc3C2=O)CC2(C4)CN(Cc3ccc(F)cc3)C2)C(=O)N1 (stereo not shown) [Example 235] | 500 to 1000
COC1(CN2Cc3cc4c(cc3C2)C(=O)N(C2CCC(=O)NC2=O)C4=O)CCN(C(=O)OC(C)(C)C)CC1 (stereo not shown) [Example 268] | 500 to 1000
NC1CCC(N2Cc3cc4c(cc3C2)C(=O)N(C2CCC(=O)NC2=O)C4=O)CC1 (stereo not shown) [Example 248] | < 500
O=C1CCC(N2C(=O)c3cc4c(cc3C2=O)CCNCC4)C(=O)N1 (stereo not shown) [Example 257] | 1000 to 10000
O=C1CCC(N2C(=O)c3cc4c(cc3C2=O)CN(C2CCC3(CCNCC3)CC2)C4)C(=O)N1 (stereo not shown) [Example 266] | < 500
O=C1CCC(N2C(=O)c3cc4c(cc3C2=O)CN(C2CNC2)C4)C(=O)N1 (stereo not shown) [Example 260] | < 500
O=C1CCC(N2C(=O)c3cc4c(cc3C2=O)CN(CC2CN(c3ccc(C(=O)O)cc3)C2)C4)C(=O)N1 (stereo not shown) [Example 271] | < 500
CC1(CN2Cc3cc4c(cc3C2)C(=O)N(C2CCC(=O)NC2=O)C4=O)CCN(C(=O)OC(C)(C)C)CC1 (stereo not shown) [Example 269] | < 500
O=C1CCC(N2Cc3cc4c(cc3C2=O)CN(C2CCNCC2)C4=O)C(=O)N1 (stereo not shown) [Example 256] | < 500
O=C(O)CN1Cc2cc3c(cc2C1)C(=O)N(C1CCC(=O)NC1=O)C3=O (stereo not shown) [Example 236] | < 500
O=C1CCC(N2Cc3cc4c(cc3C2=O)CN(C(=O)c2cccc3c2OCO3)C4)C(=O)N1 (stereo not shown) [Example 226] | < 500
O=C(O)CCCN1CCc2cc3c(cc2C1)C(=O)N(C1CCC(=O)NC1=O)C3=O (stereo not shown) [Example 242] | 1000 to 10000
COc1c2c(cc3c1C(=O)N(C1CCC(=O)NC1=O)C3=O)CN(CC1CN(Cc3ccc(F)cc3Cl)C1)C2 (stereo not shown) [Example 234] | 500 to 1000
O=C1CCC(N2C(=O)c3cc4c(cc3C2=O)CN([C@H]2C[C@H](C(=O)O)C2)C4)C(=O)N1 (stereo partly shown) [Example 259] | 500 to 1000
O=C1CCC(N2C(=O)c3cc4c(cc3C2=O)CN(C2CC3(CCNCC3)C2)C4)C(=O)N1 (stereo not shown) [Example 261] | 1000 to 10000
O=C1CCC(N2C(=O)c3cc4c(cc3C2=O)CN(CC2CCN(c3ccc(C(=O)O)cc3)CC2)C4)C(=O)N1 (stereo not shown) [Example 272] | < 500
O=C1CCC(N2C(=O)c3cc4c(cc3C2=O)CC(CN2CC3(CN(Cc5ccc(F)cc5)C3)C2)C4)C(=O)N1 (stereo not shown) [Example 229] | 500 to 1000
CC(C)(C)OC(=O)N1CCC(F)(CN2Cc3cc4c(cc3C2)C(=O)N(C2CCC(=O)NC2=O)C4=O)CC1 (stereo not shown) [Example 270] | 500 to 1000
O=C1CCC(N2C(=O)c3ccc4c(c3C2=O)CNCC4)C(=O)N1 (stereo not shown) [Example 255] | 1000 to 10000
O=C1CCC(N2C(=O)c3ccc4c(c3C2=O)CNC4)C(=O)N1 (stereo not shown) [Example 219] | 1000 to 10000
O=C1CCC(N2Cc3cc4c(cc3C2=O)CN(C2CN(Cc3ccc(F)c(F)c3)C2)C4=O)C(=O)N1 (stereo not shown) [Example 230] | 500 to 1000

Further lines, results first:

IC50 [nM] | Structure (SMILES)
< 500 | O=C1CCC(N2C(=O)c3cc4c(cc3C2=O)CN(C(=O)C2CCC3(CCNCC3)CC2)C4)C(=O)N1 (stereo not shown) [Example 250]
< 500 | O=C(O)CCCN1Cc2cc3c(cc2C1)C(=O)N(C1CCC(=O)NC1=O)C3=O (stereo not shown) [Example 240]
< 500 | O=C1CCC(C(=O)N2Cc3cc4c(cc3C2)C(=O)N(C2CCC(=O)NC2=O)C4=O)CC1 (stereo not shown) [Example 252]
< 500 | O=C1CCC(N2Cc3cc4c(cc3C2=O)CN(C(=O)c2cccc3c2CCC3)C4)C(=O)N1 (stereo not shown) [Example 225]
500 to 1000 | CCN1CC(N2Cc3cc4c(cc3C2=O)CN(C2CCC(=O)NC2=O)C4=O)C1 (stereo not shown) [Example 232]
1000 to 10000 | O=C1CCC(N2C(=O)c3cc4c(cc3C2=O)CN(C2CCCC23CCNCC3)C4)C(=O)N1 (stereo not shown) [Example 262]
1000 to 10000 | O=C1CCC(N2Cc3cc4c(cc3C2=O)CN(C2CCNCC2)C4)C(=O)N1 (stereo not shown) [Example 267]
< 500 | O=C(O)CN1Cc2cc3c(cc2C1)C(=O)N(C1CCC(=O)NC1=O)C3 (stereo not shown) [Example 237]
< 500 | O=C1CCC(N2Cc3cc4c(cc3C2=O)CN(C(=O)C2CCNCC2)C4)C(=O)N1 (stereo not shown) [Example 254]
500 to 1000 | O=C1CCC(N2C(=O)c3cc4c(cc3C2=O)CN(Cc2ccc(F)cc2)CC4)C(=O)N1 (stereo not shown) [Example 221]
> 10000 | O=C1CCC(N2C(=O)c3cc4c(cc3C2=O)CC2(CNC2)C4)C(=O)N1 (stereo not shown) [Example 217]
< 500 | COc1c2c(cc3c1CN(C1CCC(=O)NC1=O)C3=O)CN(Cc1ccccc1)C2 (stereo not shown) [Example 220]
1000 to 10000 | O=C1CCC(N2C(=O)c3cc4c(cc3C2=O)CCN(Cc2ccc(F)cc2)CC4)C(=O)N1 (stereo not shown) [Example 223]
1000 to 10000 | O=C1CCC(N2C(=O)c3cc4c(cc3C2=O)CNCC4)C(=O)N1 (stereo not shown) [Example 258]
500 to 1000 | O=C1CCC(N2Cc3cc4c(cc3C2=O)CN(CC2CCNCC2)C4)C(=O)N1 (stereo not shown) [Example 263]
< 500 | O=C1CCC(N2C(=O)c3cc4c(cc3C2=O)CN(Cc2ccc(F)nc2)C4)C(=O)N1 (stereo not shown) [Example 245]
500 to 1000 | O=C1CCC(N2Cc3cc4c(cc3C2)C(=O)N(C2CCC(=O)NC2=O)C4=O)CC1 (stereo not shown) [Example 247]
500 to 1000 | O=C1CCC(N2C(=O)c3cc4c(cc3C2=O)CN(C2CCNCC2)C4)C(=O)N1 (stereo not shown) [Example 265]
500 to 1000 | O=C(O)CN1CCc2cc3c(cc2CC1)C(=O)N(C1CCC(=O)NC1=O)C3=O (stereo not shown) [Example 243]
< 500 | O=C1CCC(N2C(=O)c3cc4c(cc3C2=O)CN(C(=O)C2CCNCC2)C4)C(=O)N1 (stereo not shown) [Example 253]
< 500 | O=C1CCC(N2C(=O)c3cc4c(cc3C2=O)CN(C2CCNC2)C4)C(=O)N1 (stereo not shown) [Example 264]
< 500 | O=C1CCC(N2C(=O)c3cc4c(cc3C2=O)CN(Cc2cccc3c2OCCO3)C4)C(=O)N1 (stereo not shown) [Example 224]
1000 to 10000 | O=C1CCC(N2Cc3cc4c(cc3C2=O)CNC4)C(=O)N1 (stereo not shown) [Example 274]
500 to 1000 | COc1c2c(cc3c1CN(C1CCC(=O)NC1=O)C3=O)CNC2 (stereo not shown) [Example 275]
500 to 1000 | O=C1CCC(N2C(=O)c3cc4c(cc3C2=O)CN(C2CCC(C(=O)O)CC2)C4)C(=O)N1 (stereo not shown) [Example 251]
1000 to 10000 | O=C1CCC(N2C(=O)c3cc4c(cc3C2=O)CN(Cc2cnc(Cl)nc2)C4)C(=O)N1 (stereo not shown) [Example 246]
1000 to 10000 | CC(=O)N1CC(N2Cc3cc4c(cc3C2=O)CN(C2CCC(=O)NC2=O)C4=O)C1 (stereo not shown) [Example 233]
< 500 | O=C1CCC(N2C(=O)c3cc4c(cc3C2=O)CC(CN2CCC(Cc3ccc(F)cc3)CC2)C4)C(=O)N1 (stereo not shown) [Example 228]
